Reference: the OligoGym collection
Oligonucleotides are written 5' to 3', each unit as a sugar letter and its base; * is a phosphorothioate linkage, no mark a phosphodiester; rarer units and linkages stand in square brackets, end groups in braces. Plain capitals give the bases only. d = 2'-deoxy (DNA); r = 2'-OH (RNA)

target: UBE2L6; assay: reporter assay of Huesken 2005; conditions: siRNA
Also: test concentration or dose not given here.

Substance	normalised inhibition (eCFP-eYFP dual reporter) [%]
sense rArArArGrCrCrUrUrCrArArCrCrUrGrCrGrCrAdTdT / antisense rUrGrCrGrCrArGrGrUrUrGrArArGrGrCrUrUrUdCdA	69.8
sense rArArCrCrArArGrArUrCrUrArCrCrArCrCrCrCdTdT / antisense rGrGrGrGrUrGrGrUrArGrArUrCrUrUrGrGrUrUdGdT	43.6
sense rArArCrCrUrGrCrGrCrArUrCrArGrCrUrUrCrCdTdT / antisense rGrGrArArGrCrUrGrArUrGrCrGrCrArGrGrUrUdGdA	51.6
sense rArArCrUrGrGrArArGrCrCrUrUrGrCrArCrCrAdTdT / antisense rUrGrGrUrGrCrArArGrGrCrUrUrCrCrArGrUrUdCdT	77.8
sense rArArUrGrCrCrGrArArGrArGrUrUrCrArCrCrCdTdT / antisense rGrGrGrUrGrArArCrUrCrUrUrCrGrGrCrArUrUdCdT	51.6
sense rArCrArCrArGrArArUrCrCrGrGrArGrCrUrGrUdTdT / antisense rArCrArGrCrUrCrCrGrGrArUrUrCrUrGrUrGrUdCdA	85.4
sense rArCrCrArArGrArUrCrUrArCrCrArCrCrCrCrAdTdT / antisense rUrGrGrGrGrUrGrGrUrArGrArUrCrUrUrGrGrUdTdG	90.8
sense rArCrCrArCrCrCrCrArArCrGrUrGrGrArCrGrAdTdT / antisense rUrCrGrUrCrCrArCrGrUrUrGrGrGrGrUrGrGrUdAdG	64.9
sense rArCrCrCrGrArCrCrArArCrCrUrCrCrCrUrArCdTdT / antisense rGrUrArGrGrGrArGrGrUrUrGrGrUrCrGrGrGrUdAdG	64
sense rArCrCrUrCrGrCrUrGrArCrCrUrGrCrUrGrArCdTdT / antisense rGrUrCrArGrCrArGrGrUrCrArGrCrGrArGrGrUdCdC	58.6
sense rArCrCrUrGrCrGrCrArUrCrArGrCrUrUrCrCrCdTdT / antisense rGrGrGrArArGrCrUrGrArUrGrCrGrCrArGrGrUdTdG	70.9
sense rArCrCrUrGrCrGrGrArArCrCrUrGrUrCrCrArGdTdT / antisense rCrUrGrGrArCrArGrGrUrUrCrCrGrCrArGrGrUdAdT	73.8
sense rArCrUrUrGrCrCrArArGrUrCrCrUrGrGrArGrGdTdT / antisense rCrCrUrCrCrArGrGrArCrUrUrGrGrCrArArGrUdCdT	31.8
sense rArGrCrGrArUrGrArUrGrCrCrArArUrGrUrCrCdTdT / antisense rGrGrArCrArUrUrGrGrCrArUrCrArUrCrGrCrUdGdG	87.3
sense rArGrGrGrArGrCrCrCrCrUrGrCrGrGrArUrGrGdTdT / antisense rCrCrArUrCrCrGrCrArGrGrGrGrCrUrCrCrCrUdGdA	60.1
sense rArGrUrArUrCrCrGrUrUrCrArArGrCrCrUrCrCdTdT / antisense rGrGrArGrGrCrUrUrGrArArCrGrGrArUrArCrUdCdC	53.7
sense rArGrUrUrCrArCrCrCrUrCrCrGrArUrUrCrGrGdTdT / antisense rCrCrGrArArUrCrGrGrArGrGrGrUrGrArArCrUdCdT	55.3

Substance	normalised inhibition (eCFP-eYFP dual reporter) [%]
sense rArUrCrArGrCrArGrUrGrArGrArArCrUrGrGrAdTdT / antisense rUrCrCrArGrUrUrCrUrCrArCrUrGrCrUrGrArUdGdA	82.9
sense rArUrCrArGrCrUrUrCrCrCrGrCrCrGrGrArGrUdTdT / antisense rArCrUrCrCrGrGrCrGrGrGrArArGrCrUrGrArUdGdC	52.3
sense rArUrGrGrArCrCrUrCrGrCrUrGrArCrCrUrGrCdTdT / antisense rGrCrArGrGrUrCrArGrCrGrArGrGrUrCrCrArUdCdC	43.8
sense rArUrUrCrArCrArArCrCrArArGrArUrCrUrArCdTdT / antisense rGrUrArGrArUrCrUrUrGrGrUrUrGrUrGrArArUdTdT	51
sense rCrArArArUrUrCrArCrArArCrCrArArGrArUrCdTdT / antisense rGrArUrCrUrUrGrGrUrUrGrUrGrArArUrUrUrGdAdT	85.9
sense rCrArCrArArCrCrArArGrArUrCrUrArCrCrArCdTdT / antisense rGrUrGrGrUrArGrArUrCrUrUrGrGrUrUrGrUrGdAdA	45.8
sense rCrArCrArGrArArUrCrCrGrGrArGrCrUrGrUrUdTdT / antisense rArArCrArGrCrUrCrCrGrGrArUrUrCrUrGrUrGdTdC	97.8
sense rCrArGrCrArGrUrGrArGrArArCrUrGrGrArArGdTdT / antisense rCrUrUrCrCrArGrUrUrCrUrCrArCrUrGrCrUrGdAdT	74.9
sense rCrArUrCrArGrCrArGrUrGrArGrArArCrUrGrGdTdT / antisense rCrCrArGrUrUrCrUrCrArCrUrGrCrUrGrArUrGdAdT	65.7
sense rCrCrArCrCrCrCrArArCrGrUrGrGrArCrGrArGdTdT / antisense rCrUrCrGrUrCrCrArCrGrUrUrGrGrGrGrUrGrGdTdA	67.6
sense rCrCrArUrArCrCrUrGrCrGrGrArArCrCrUrGrUdTdT / antisense rArCrArGrGrUrUrCrCrGrCrArGrGrUrArUrGrGdGdG	88.3
sense rCrCrCrArUrCrArUrCrArGrCrArGrUrGrArGrAdTdT / antisense rUrCrUrCrArCrUrGrCrUrGrArUrGrArUrGrGrGdCdA	74
sense rCrCrCrArUrGrArUrCrArArArUrUrCrArCrArAdTdT / antisense rUrUrGrUrGrArArUrUrUrGrArUrCrArUrGrGrGdAdG	95.2
sense rCrCrCrUrGrCrGrGrArUrGrGrArCrCrUrCrGrCdTdT / antisense rGrCrGrArGrGrUrCrCrArUrCrCrGrCrArGrGrGdGdC	59.7
sense rCrCrGrArArGrArGrUrUrCrArCrCrCrUrCrCrGdTdT / antisense rCrGrGrArGrGrGrUrGrArArCrUrCrUrUrCrGrGdCdA	62.6
sense rCrCrGrArArUrArUrCrArGrGrGrArGrCrCrCrCdTdT / antisense rGrGrGrGrCrUrCrCrCrUrGrArUrArUrUrCrGrGdTdC	50
sense rCrCrUrArCrCrCrGrArCrCrArArCrCrUrCrCrCdTdT / antisense rGrGrGrArGrGrUrUrGrGrUrCrGrGrGrUrArGrGdAdG	55.6

target: not listed separately; assay: reporter assay of Huesken 2005; conditions: siRNA

Substance	normalised inhibition (eCFP-eYFP dual reporter) [%]
sense rUrCrArUrUrGrUrUrCrCrUrGrUrGrArArCrUrGdTdT / antisense rCrArGrUrUrCrArCrArGrGrArArCrArArUrGrAdAdA	66.7
sense rUrCrCrCrCrArUrArGrGrCrUrUrUrGrGrArGrCdTdT / antisense rGrCrUrCrCrArArArGrCrCrUrArUrGrGrGrGrAdTdA	35.8
sense rUrCrCrCrCrUrGrCrCrUrGrUrCrArGrGrGrGrUdTdT / antisense rArCrCrCrCrUrGrArCrArGrGrCrArGrGrGrGrAdAdA	42.2
sense rUrCrCrCrUrGrCrUrUrCrUrGrArGrArCrUrUrCdTdT / antisense rGrArArGrUrCrUrCrArGrArArGrCrArGrGrGrAdAdG	67.9
sense rUrGrArArGrCrUrGrGrUrCrUrGrUrGrGrCrArGdTdT / antisense rCrUrGrCrCrArCrArGrArCrCrArGrCrUrUrCrAdGdA	44.4
sense rUrGrArGrArCrUrUrCrCrArUrCrUrCrUrArGrCdTdT / antisense rGrCrUrArGrArGrArUrGrGrArArGrUrCrUrCrAdGdA	32.9
sense rUrGrCrCrCrArUrUrGrUrGrUrUrCrCrCrUrUrGdTdT / antisense rCrArArGrGrGrArArCrArCrArArUrGrGrGrCrAdGdG	95.4
sense rUrGrCrCrUrCrCrCrUrUrGrArGrGrCrGrUrCrUdTdT / antisense rArGrArCrGrCrCrUrCrArArGrGrGrArGrGrCrAdAdT	34.1
sense rUrGrGrArUrUrUrArGrGrCrUrUrGrArGrGrGrAdTdT / antisense rUrCrCrCrUrCrArArGrCrCrUrArArArUrCrCrAdGdA	81.4
sense rUrGrGrCrUrCrUrGrUrCrUrCrUrCrUrGrCrCrAdTdT / antisense rUrGrGrCrArGrArGrArGrArCrArGrArGrCrCrAdCdC	76.5
sense rUrGrUrGrArCrCrUrCrCrArUrCrUrArCrUrCrUdTdT / antisense rArGrArGrUrArGrArUrGrGrArGrGrUrCrArCrAdGdG	96.8
sense rUrGrUrGrGrArCrUrCrUrGrArGrArArGrArArAdTdT / antisense rUrUrUrCrUrUrCrUrCrArGrArGrUrCrCrArCrAdAdG	85.5
sense rUrGrUrGrUrGrCrUrUrCrCrUrCrUrCrCrCrArUdTdT / antisense rArUrGrGrGrArGrArGrGrArArGrCrArCrArCrAdGdT	104
sense rUrGrUrUrCrCrUrUrGrUrGrGrArCrUrCrUrGrAdTdT / antisense rUrCrArGrArGrUrCrCrArCrArArGrGrArArCrAdTdC	94.3
sense rUrUrGrCrCrUrCrCrCrUrUrGrArGrGrCrGrUrCdTdT / antisense rGrArCrGrCrCrUrCrArArGrGrGrArGrGrCrArAdTdC	37.3
sense rUrUrGrCrUrCrUrCrUrGrGrArGrUrCrUrCrCrCdTdT / antisense rGrGrGrArGrArCrUrCrCrArGrArGrArGrCrArAdGdA	58.4
sense rUrUrUrArGrGrGrUrGrCrCrCrArCrUrUrArGrGdTdT / antisense rCrCrUrArArGrUrGrGrGrCrArCrCrCrUrArArAdAdG	48.8
sense rUrUrUrGrCrArGrUrUrGrGrArGrArUrUrCrArGdTdT / antisense rCrUrGrArArUrCrUrCrCrArArCrUrGrCrArArAdCdG	48.6
